Source: patent US20250090571A1, “CARD9 ATTENUATES AB PATHOLOGY AND MODIFIES MICROGLIAL RESPONSES IN AN ALZHEIMER’S DISEASE” (University of Virginia Patent Foundation, priority 2023, published 2025)

How the values were obtained:
Format in all cases: in vivo, mouse
[1] = test system: Card9−/−5×FAD mice; assay: Intrahippocampal injection of pustulan, Aβ load in the hippocampus by immunofluorescence (CARD9-deficient control); details: 2-month-old Card9−/−5×FAD mice, 2 μg pustulan intrahippocampal, 7 days post-injection, vs vehicle-treated hemisphere
Protocol: (§1) As previously published (110), brain sections were blocked for 1 hour at room temperature with 2% donkey serum, 1% bovine serum albumin, 0.1% triton, 0.05% tween in PBS prior to incubation with primary antibodies. The primary antibodies were then diluted in this block overnight at 4° C. Brain sections were stained with anti-Aβ (D54D2, Cell Signaling, 1:300 dilution) to label plaques. To assess neuronal cell death, sections were stained with anti-NeuN (MAβ377, Millipore Sigma, 1:500 dilution) and TUNEL (Millipore Sigma, 11684795910, according to the manufacturer's instructions). In order to analyze microglia, sections were stained with IBA1 (ab5076, Abcam, 1:300 dilution). Microglial proliferation was assessed using Ki67-EF660 (SolA15, Thermo Fisher, 1:100 dilution). Microglial iron accumulation was measured using Ferritin Heavy Chain (PA5-27500, Thermo Fisher, 1:500). Following primary antibody incubation, sections were then washed 3 times for 10 minutes at room temperature in PBS and 0.05% tween-20. After washing, the brain sections were incubated in respective donkey Alexa Fluor 488, 594, 647 anti-rabbit, -goat, -rat, -streptavidin, and-mouse (Thermo Fisher, 1:1000 dilution) for 2 hours at room temperature. Once again, brain sections were washed 3 times for 10 minutes at room temperature. […] Images were analyzed using FIJI software or Imaris software (9.5.1). […]

[2] = test system: 5×FAD mice; assay: Intrahippocampal injection of pustulan, Aβ load in the hippocampus by immunofluorescence; details: 2-month-old 5×FAD mice, 2 μg pustulan intrahippocampal, 7 days post-injection, vs vehicle-treated hemisphere
Protocol: As previously published (110), brain sections were blocked for 1 hour at room temperature with 2% donkey serum, 1% bovine serum albumin, 0.1% triton, 0.05% tween in PBS prior to incubation with primary antibodies. The primary antibodies were then diluted in this block overnight at 4° C. Brain sections were stained with anti-Aβ (D54D2, Cell Signaling, 1:300 dilution) to label plaques. To assess neuronal cell death, sections were stained with anti-NeuN (MAβ377, Millipore Sigma, 1:500 dilution) and TUNEL (Millipore Sigma, 11684795910, according to the manufacturer's instructions). In order to analyze microglia, sections were stained with IBA1 (ab5076, Abcam, 1:300 dilution). Microglial proliferation was assessed using Ki67-EF660 (SolA15, Thermo Fisher, 1:100 dilution). Microglial iron accumulation was measured using Ferritin Heavy Chain (PA5-27500, Thermo Fisher, 1:500). Following primary antibody incubation, sections were then washed 3 times for 10 minutes at room temperature in PBS and 0.05% tween-20. After washing, the brain sections were incubated in respective donkey Alexa Fluor 488, 594, 647 anti-rabbit, -goat, -rat, -streptavidin, and-mouse (Thermo Fisher, 1:1000 dilution) for 2 hours at room temperature. Once again, brain sections were washed 3 times for 10 minutes at room temperature. […] Images were analyzed using FIJI software or Imaris software (9.5.1).
5×FAD and Card9^−/−5×FAD mice were anesthetized with a ketamine/xylazine cocktail before receiving a bilateral hippocampal injection of 2 μl of vehicle or 2 μg pustulan into the right and left hemisphere of the hippocampus (at +2 mm lateral, -2 mm posterior, and −2 mm ventral relative to the intersection of the coronal and sagittal suture (bregma) at a rate of 200 nl/min) using a stereotaxic frame (51730U, Stoelting) and nanoliter injector (NL2010MC2T, World Precision Instruments). […] Images were analyzed using FIJI software or Imaris software (9.5.1). […]

[3] = test system: Card9−/−5×FAD mice; assay: Microglia depletion with PLX5622 chow, microgliosis and Aβ load in the cortex (CARD9-deficient); details: PLX5622 chow for 2.5 months, vs control chow
Protocol: as §1

[4] = test system: 5×FAD mice; assay: Microglia depletion with PLX5622 chow, microgliosis and Aβ load in the cortex; details: PLX5622 chow for 2.5 months, vs normal chow
Protocol: as §1

Pustulan
levels of Aβ in the hippocampus [1]: comparable levels of Aβ regardless of treatment | Aβ coverage in the hippocampus [2]: significantly reduced | Aβ plaque volume in the hippocampus [2]: lower plaque volume | number of Aβ plaques in the hippocampus [2]: fewer plaques

COc1ncc(F)cc1CNc1ccc(Cc2c[nH]c3ncc(C)cc23)c(F)n1 [PLX5622]
Aβ plaque load in the cortex [3]: did not significantly impact | Aβ plaque load in the cortex [4]: significantly increased
